This is an account of results in patent EP4800018A1, “PAN-KRAS INHIBITOR AND USE THEREOF IN MEDICINES” (Betta Pharmaceuticals Co., Ltd., priority 2023, dated 2025).

Where two headings read alike, the source gives them in different places.

The target in one data set is T1, KRAS G12D-cRAF (Homo sapiens, UniProt P01116, G12D).
T1 construct: expressed in transfected cells
Nature of the data set: Cellular KRAS G12D-cRAF Binding Inhibition Assay (NanoBRET, AD293 stable cells). The format is cell-based. Particulars: 3 h incubation, read-out: NanoBRET KRAS G12D. In short, it runs like this:
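AD293 cells stably expressing KRAS G12D-NanoLuc and cRAF RBD-HaloTag were seeded at 1×10^4 cells/well with NanoBRET 618 ligand overnight. BRET signal was converted to % inhibition of binding relative to max and blank wells, and IC50 came from curve fitting.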
Background: Bioluminescence resonance energy transfer reports proximity on the nanometre scale.

Data set [1] concerns KRAS-G12V mutant tumor cells SW620. The data set can be described thus: Cell Proliferation Inhibition Assay (SW620), Cell-titer GLO, 96 h. Particulars: SW620 cells, 96 h incubation, Cell-titer GLO, read-out: SW620(G12V). The format is cell-based. In short, it runs like this:
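SW620 cells (1×10^3/well, low-attachment) were exposed to compound from 10000 to 0.03 nM (0.5% DMSO) for 96 h at 37°C. Viability was read by Cell-titer GLO luminescence. Inhibition was calculated relative to DMSO and blank wells, and IC50 obtained by curve fitting.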

Data set [2] relates to KRAS-G12D mutant tumor cells AGS. The data set can be described thus: Cell Proliferation Inhibition Assay (AGS), Cell-titer GLO, 96 h. The format is cell-based. Particulars: AGS cells, 96 h incubation, Cell-titer GLO, read-out: AGS(G12D). In short, it runs like this: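 AGS cells (KRAS-G12D) grown in low-attachment plates were exposed to compound for 96 h at 37°C. Viability was read by CellTiter-Glo luminescence and converted to % inhibition against max and blank wells. IC50 came from curve fitting.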

A short description of data set [3]: PK Study of Compounds in Rats. The format is in vivo, Male SD rats. Particulars: mean; for F: PO 10 mg/kg vs IV 1 mg/kg (n=3); for Cmax: read-out: C0/Cmax; for Vd: read-out: Vss. The procedure:
(§1) The test compound was mixed with the vehicle (10% DMSO/5% Solutol/85% physiological saline), vortexed and sonicated to prepare a clear 0.5 mg/mL intravenous injection solution. The test compound was mixed with the vehicle (20% PEG400/10% Solutol/70% pH 4.5 acetate buffer), vortexed and sonicated to prepare a clear 1 mg/mL oral solution. Male SD rats aged 6 to 7 weeks were selected and administered the test compound via intravenous (IV) and oral (PO) routes, respectively. Whole blood samples were collected at 5 min, 15 min, 30 min, 1 h, 2 h, 4 h, 7 h, and 24 h for the intravenous route, and at 15 min, 30 min, 1 h, 2 h, 4 h, 7 h, and 24 h for the oral route. Drug concentrations were analyzed by LC-MS/MS method, and pharmacokinetic parameters were calculated using Phoenix WinNonlin software (Pharsight, USA).

In the next data set the target is T2, KRAS G12V-cRAF (Homo sapiens, UniProt P01116, G12V).
T2 construct: expressed in transfected cells
The data set can be described thus: Cellular KRAS G12V-cRAF Binding Inhibition Assay (NanoBRET, AD293 stable cells). The format is cell-based. Particulars: 3 h incubation, read-out: NanoBRET KRAS G12V. In short, it runs like this:
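Live AD293 stable cells, NanoLuc donor with HaloTag NanoBRET 618 ligand acceptor added overnight. Inhibition percent from luminescence relative to max signal and medium blank; IC50 from curve fitting.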

Data set [4] can be described thus: PK Study of Compounds in Mice. The format is in vivo, Female ICR mice. Particulars: mean; for Cmax: read-out: C0/Cmax. As for the experimental part:
as §1, with “0.2” for “0.5”, “Female ICR mice” for “Male SD rats”

Setting [5] is: male, SD, rat, whole blood, IV 1 mg/kg (n=3).
Where [6] appears, read: male, SD, rat, whole blood, IV 1 mg/kg (n=3), read-out: AUC0-t.
The mark [7] stands for this setting: male, SD, rat, whole blood, PO 10 mg/kg (n=3).
Setting [8] is: male, SD, rat, whole blood, PO 10 mg/kg (n=3), read-out: AUC0-t.
The mark [9] stands for this setting: male, SD, rat, whole blood, PO 10 mg/kg (n=3), read-out: Tmax.
[10] abbreviates: female, ICR, mouse, whole blood, IV 1 mg/kg (n=3).
Where [11] appears, read: female, ICR, mouse, whole blood, PO 10 mg/kg (n=3).

As to `CC1OCCCn2c(c3c4cc(ccc42)-c2csc(n2)CC(NC(=O)C2C4COCC42)C(=O)N2NC(C(=O)OCC(C)(C)C3)C3CC2C3)-c2cc(N3CCN(C)CC3)cnc21` [Example 192, (1R,5S,6r)-N-((1^5S,6^4S,4S,Z)-1^5,10,10-trimethyl-1^2-(4-methylpiperazin-1-yl)-5,7-dioxo-1^8,1^9-dihydro-1^5H,1^7H-8-oxa-6^2,6^3-diaza-1(13,15)-pyrido[3',2':7,8][1,5]oxazonino[5,6-a]indola-2(4,2)-thiazola-6(2,4)-bicyclo[3.1.1]heptanacycloundecaphane-4-yl)-3-oxabicyclo[3.1.0]hexane-6-carboxamide], the IC50 is 4300 pM on KRAS G12D-cRAF; 900 pM in data set [1] (Homo sapiens, SW-620, 96 h); 1500 pM in data set [2] (Homo sapiens, AGS, 96 h); 16300 pM on KRAS G12V-cRAF. In data set [3], this compound displayed an F of 11.9. The compound further yielded a clearance in data set [3] (setting [5]) of 3.59 mL/min/kg. For the same compound, the figures for the half-life in data set [3] (setting [5]) and in data set [3] (setting [7]) were 4.93 h and 5.13 h, respectively. Besides, the values for the AUC(0-t) in data set [3] (setting [6]) and in data set [3] (setting [8]) were 4500 ng·h/mL and 5350 ng·h/mL, respectively. For the same compound, the figures for the Cmax in data set [3] (setting [5]) and in data set [3] (setting [7]) were 4220 ng/mL and 472 ng/mL, respectively. Besides, in data set [3] (setting [5]), the Vd came to 1.11 L/kg. The Tmax in data set [3] (setting [9]) stood at 3.33 h.
On to `CC1OCCCn2c(c3c4cc(ccc42)-c2csc(n2)CC(NC(=O)C2C(C)C2C)C(=O)N2CCCC(N2)C(=O)OCC(C)(C)C3)-c2cc(CN3CCN(C)CC3)cnc21` [Example 193, (1r,2R,3S)-2,3-dimethyl-N-((1^5S,6^3S,4S,Z)-1^5,10,10-trimethyl-1^2-((4-methylpiperazin-1-yl)methyl)-5,7-dioxo-1^8,1^9,6^1,6^2,6^3,6^4,6^5,6^6-octahydro-1^5H,1^7H-8-oxa-1(13,15)-pyrido[3',2':7,8][1,5]oxazonino[5,6-a]indola-2(4,2)-thiazola-6(1,3)-pyridazinacycloundecaphane-4-yl)cyclopropane-1-car boxamide], for which the IC50 was found to be 1200 pM at KRAS G12D-cRAF; 200 pM in data set [1] (Homo sapiens, SW-620, 96 h); 900 pM in data set [2] (Homo sapiens, AGS, 96 h); 27100 pM at KRAS G12V-cRAF.
Taken in the same sequence, the figures for `CCN1CCN(c2cnc3c(c2)-c2c4c5cc(ccc5n2CCCOC3C)-c2coc(n2)CC(NC(=O)C2C(C)C2C)C(=O)N2NC(C(=O)OCC(C)(C)C4)C3CC2C3)CC1` [Example 197, (1r,2R,3S)-N-((1^5S,6^4S,4S,Z)-1^2-(4-ethylpiperazin-1-yl)-1^5,10,10-trimethyl-5,7-dioxo-1^8,1^9-dihydro-1^5H,1^7H-8-oxa-6^2,6^3-diaza-1(13,15)-pyrido[3',2':7,8][1,5]oxazonino[5,6-a]indola-2(4,2)-oxazola-6(2,4)-bicyclo[3.1.1]heptanacycloundecaphane-4-yl)-2,3-dimethylcyclopropane-1-carboxamide] were 300 pM, 10 pM, 30 pM and 2000 pM.
Regarding `CC1OCCCn2c(c3c4cc(ccc42)-c2csc(n2)CC(NC(=O)C2C(C)C2C)C(=O)N2NC(C(=O)OCC(C)(C)C3)C3CC2C3)-c2cc(N3CCN(C4COC4)CC3)cnc21` [Example 198, (1r,2R,3S)-N-((1^5S,6^4S,4S,Z)-1^2-(4-(oxetan-3-yl)piperazin-1-yl)-1^5,10,10-trimethyl-5,7-dioxo-1^8 ,1^9-dihydro-1^5H,1^7H-8-oxa-6^2,6^3-diaza-1(13,15)-pyrido[3',2':7,8][1,5]oxazonino[5,6-a]indola-2(4 ,2)-thiazola-6(2,4)-bicyclo[3.1.1]heptanacycloundecaphane-4-yl)-2,3-dimethylcyclopropane-1-ca rboxamide], the IC50 on KRAS G12D-cRAF was determined as 2000 pM; in data set [1] (Homo sapiens, SW-620, 96 h), 90 pM; in data set [2] (Homo sapiens, AGS, 96 h), 370 pM; at KRAS G12V-cRAF it was 8400 pM. Moreover, the F is recorded as 54.0 in data set [4] (PO 10 mg/kg vs IV 1 mg/kg (n=3)) and 32.4 in data set [3]. Further, the AUC(0-t) was 2450 ng·h/mL in data set [4] (setting [10]), 13200 ng·h/mL in data set [4] (setting [11]), 6940 ng·h/mL in data set [3] (setting [6]) and 22500 ng·h/mL in data set [3] (setting [8]). Moreover, the clearance in data set [4] (setting [10]) was determined as 5.75 mL/min/kg; in data set [3] (setting [5]), 2.22 mL/min/kg. Also, the results for the half-life in data set [4] (setting [10]) and in data set [3] (setting [5]) were 8.9 h and 7.22 h, respectively. The Cmax came out at 462 ng/mL in data set [4] (setting [10]), 1300 ng/mL in data set [4] (setting [11]), 6060 ng/mL in data set [3] (setting [5]) and 2060 ng/mL in data set [3] (setting [7]). The Vd came to 4.66 L/kg in data set [4] (female, ICR, mouse, whole blood, IV 1 mg/kg (n=3), read-out: Vss) and 1.08 L/kg in data set [3] (setting [5]). The time of peak concentration (Tmax) in data set [4] (setting [11]) was 2 h; in data set [3] (setting [9]) it was 3.33 h.
In the case of “(1S,2S)-2-(difluoromethyl)-N-((1^5S,6^3S,4S,Z)-1^5,10,10-trimethyl-1^2-(6-methyl-3,6-diazabicyclo[ 3.1.1]heptan-3-yl)-5,7-dioxo-1^8,1^9,6^1,6^2,6^3,6^4,6^5,6^6-octahydro-1^5H,1^7H-8-oxa-1(13,15)-pyrido[3', 2':7,8][1,5]oxazonino[5,6-a]indola-2(4,2)-thiazola-6(1,3)-pyridazinacycloundecaphane-4-yl)cycl opropane-1-carboxamide [Example 150]”, the IC50 at KRAS G12D-cRAF was determined as 1610 pM; in data set [1], 160 pM; in data set [2], 930 pM; at KRAS G12V-cRAF, 8100 pM.
Regarding “(1S,2S)-2-(difluoromethyl)-N-((1^5S,6^4S,4S,Z)-1^5,10,10-trimethyl-1^2-(4-methylpiperazin-1-yl)-5, 7-dioxo-1^8,1^9-dihydro-1^5H,1^7H-8-oxa-6^2,6^3-diaza-1(13,15)-pyrido[3',2':7,8][1,5]oxazonino[5,6-a ]indola-2(4,2)-thiazola-6(2,4)-bicyclo[3.1.1]heptanacycloundecaphane-4-yl)cyclopropane-1-carb oxamide [Example 184]”, in data set [1], the IC50 is 650 pM. The IC50 in data set [2] is 900 pM. Moreover, in data set [3] (IV 1 mg/kg (n=3)), the AUC(0-t) came out at 5558 ng·h/mL, the CL was found to be 2.56 mL/min/kg, the T1/2 was 9.07 h and the Vss amounted to 1.71 L/kg. Also, in data set [3] (PO 10 mg/kg (n=3)), the AUC(0-t) was determined as 10910 ng·h/mL and the Tmax is 3.33 h. The compound also had a F in data set [3] of 19.6.

Broadly, the clearance is the volume of plasma or blood freed of the substance per unit of time. High values mean a high capacity for elimination, low ones a low capacity for elimination. A word on the half-life: it is the time in which the quantity being followed falls by half. High values mean slow decline, low ones rapid decline. Broadly, the Tmax is the time from dosing to the highest level. Usually Vss stands for the apparent volume that relates the amount in the body to the concentration in plasma or blood. Higher therefore signals wide distribution into tissue.
